Measurements as given in patent US20190282560A1, “1-Methylnicotinamide for the Treatment of Diseases Associated With C-Reactive Protein” (Pharmena S.A., priority 2016, published 2019).

System: C-reactive protein
Assay: Randomized, double-blind, placebo controlled, forced dose-escalation, multicenter study; hs-CRP blood levels
Assay type: in vivo, human
Description: The study was a randomized, double-blind, placebo controlled, forced dose-escalation, multicenter study.
Inclusion Criteria • Patients were at least 18 years of age and ≤80 years of age at the time of informed consent; • Women of childbearing potential must have a negative urine pregnancy test at screening and visit 4.
Exclusion Criteria • Patients who were pregnant, planning to become pregnant during the study, or nursing • Patients who had with clinically significant electrocardiographic abnormalities at visit 1 or visit 4; • Patients who had body mass index>45 kg/m2 at visit 1; • Patients who had weight change of >5% of initial body weight between visits 1 and 4 (randomization); • Patients who had poorly controlled diabetes defined as a hemoglobin A1c>9.5% prior to visit 4 (randomization); • Patients who had evidence of hepatic disease (ALT or AST greater than 2.0 ULN, bilirubin greater than 1.5 ULN, or cirrhosis) at visit 1; • Patients who had renal dysfunction defined as glomerular filtration rate (GFR)<60 mL/min/1.73 m2 at visit 1; • Patients who had hypothyroidism that was not treated or not stable for at least 6 months prior to study entry; • Patients who had poorly controlled hypertension defined as a mean systolic blood pressure above 160 mm Hg and/or diastolic blood pressure above 100 mmHg at visit 1.
Following signature of informed consent, 164 patients received 1000 mg placebo three times daily with meals in a single-blind manner for a dietary-controlled baseline period of 6 to 8 weeks. From the sample of eligible subjects who completed the 6 to 8 week dietary-controlled baseline period, 71 subjects (22 received placebo and 49 received 1-MNA chloride) meeting all inclusion and no exclusion criteria were randomized in a double-blind manner ([…]) to the treatment arm. The treatment periods were: weeks 1 and 2 two 500 mg tablets administered three times daily with meals (total daily dose 3000 mg); weeks 3 to 14 two 1000 mg tablets administered three times daily with meals (total daily dose 6000 mg). Down titration to 3000 mg daily was allowed in the event that a subject could not tolerate the 6000 mg daily treatment for the stipulated period. Under this scenario, the down-titrated subject remained on the tolerated dose for the duration of the trial. hs-CRP blood levels were evaluated during the baseline period, upon randomization and throughout the active treatment period. All blood samples were collected following a 12-hour fast. Throughout the study, the subjects were required to adhere to a heart-healthy diet and abstain from/minimize ethyl alcohol intake. Safety and tolerability were assessed throughout the trial through the evaluation of physical exams, electrocardiograms, routine hematology ad blood chemistry testing, vital signs and adverse events.
In the analysis, adjusted geometric mean percent change was obtained by exponentiating the adjusted mean from the ANCOVA model, then subtracting 1 and multiplying by 100. Bounds of the 95% confidence intervals were obtained similarly. Based on the ANCOVA model of the change in log-transformed CRP including treatment group and log-transformed baseline value, the change in CRP level in blood in this study was approximately −17% relative to placebo.

[1] = end of study, oral 3000 mg daily weeks 1-2, 6000 mg daily weeks 3 to 14, n 45

SMILES: C[n+]1cccc(C(N)=O)c1 [1-MNA chloride, 1-methylnicotinamide]
- Lowering of blood or serum CRP level from baseline (baseline to end of study, 3000 then 6000 mg daily, 14 weeks): about 16%
- Adjusted geometric mean percent change from baseline in C-reactive protein (baseline to end of study, ANCOVA on log-transformed CRP, 3000 then 6000 mg daily, 14 weeks): −15.66%
- C-reactive protein, Baseline, Geometric mean (baseline, before double-blind treatment, n 49): 2.9 mg/L
- C-reactive protein, Baseline, Mean ± SD (baseline, before double-blind treatment, patients with serum triglycerides 200-500 mg/dL, n 49): 4.0 ± 5.4 mg/L
- C-reactive protein, End of study, Geometric mean [1]: 2.4 mg/L
- C-reactive protein, End of study, Mean ± SD [1]: 3.3 ± 3.2 mg/L
- C-reactive protein, Change from baseline to end of study, Mean ± SD (oral 3000 mg daily weeks 1-2, 6000 mg daily weeks 3 to 14, n 45): -0.8 ± 4.7 mg/L
